Results: publication PMC12527922, “Cocaine chemogenetics blunts drug-seeking by synthetic physiology” (Nature, 2025)

Target: coca-5HT3 (α7(L141G,G175K,Y210F,Y217F)–5HT3) (Homo sapiens, UniProt P36544, G175K/L141G/Y210F/Y217F)
Assay: Membrane potential assay, coca-5HT3 in HEK293
Conditions: for Response / Max normalized Response: coca-5HT3; for Response: ED Fig 3a; for Max normalized Response: ED Fig 3b

coca-5HT3 (α7(L141G,G175K,Y210F,Y217F)–5HT3), sequence (P36544 23-224 L141G/G175K/Y210F/Y217F): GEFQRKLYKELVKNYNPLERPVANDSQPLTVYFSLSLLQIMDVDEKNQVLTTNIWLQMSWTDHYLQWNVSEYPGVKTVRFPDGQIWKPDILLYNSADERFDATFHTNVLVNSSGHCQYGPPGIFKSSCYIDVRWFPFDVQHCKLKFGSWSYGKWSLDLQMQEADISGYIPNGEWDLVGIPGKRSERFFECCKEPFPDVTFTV
coca-5HT3 (α7(L141G,G175K,Y210F,Y217F)–5HT3), sequence (P23979 242-489, further chain): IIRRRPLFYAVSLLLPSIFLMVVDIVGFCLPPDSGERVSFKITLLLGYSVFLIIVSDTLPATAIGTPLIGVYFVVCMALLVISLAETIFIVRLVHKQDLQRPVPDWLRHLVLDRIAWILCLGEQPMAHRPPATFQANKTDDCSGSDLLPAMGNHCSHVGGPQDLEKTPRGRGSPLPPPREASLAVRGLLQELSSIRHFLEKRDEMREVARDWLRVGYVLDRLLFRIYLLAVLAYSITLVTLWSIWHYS

Row | Structure (SMILES) | Response (conc 0.457247 uM) | Response (conc 1.37174 uM) | Response (conc 12.3457 uM) | Response (conc 37.037 uM) | Response (conc 111.111 uM) | Response (conc 333.333 uM) | Response (conc 1000 uM) | response at coca-5HT3 (between 10-100 µM) | Max normalized Response (conc 0.137 uM) | Max normalized Response (conc 3.7 uM) | Max normalized Response (conc 11.1 uM) | Max normalized Response (conc 33.3 uM) | Max normalized Response (conc 100 uM) | activation of coca-5HT3 (up to 100 µM)
1 | CCCCC/C=C\C/C=C\C/C=C\C/C=C\CCCC(=O)NCCO [Anandamide] | 0.053 | 0.085 | 0.046 | 0.011 | 0.073 | 0.021 | 0.149 | – | – | – | – | – | – | –
2 | N[C@@H](CC(=O)O)C(=O)O [Aspartate] | 0.065 | 0.034 | 0.025 | 0.074 | 0.072 | 0.088 | 0.232 | – | – | – | – | – | – | –
3 | CN1[C@@H]2CC[C@H]1C[C@@H](OC(c1ccccc1)c1ccccc1)C2 [Benztropine] | – | – | – | – | – | – | – | substantial response | 0.05732 | 0.1399 | 0.2931 | 0.5901 | 1.051 | –
4 | N[C@H](CO)C(=O)O [D-serine] | 0.104 | 0.061 | 0.037 | 0.062 | 0.111 | 0.06 | 0.145 | – | – | – | – | – | – | –
5 | NCCc1ccc(O)c(O)c1 [Dopamine] | 0.119 | 0.062 | 0.04 | 0.017 | 0.052 | 0.039 | 0.106 | – | – | – | – | – | – | –
6 | CNC[C@H](O)c1ccc(O)c(O)c1 [Epinephrine] | 0.136 | 0.141 | 0.06 | 0.029 | 0.188 | – | – | – | – | – | – | – | – | –
7 | NCCCC(=O)O [GABA] | 0.157 | 0.099 | 0.041 | 0.055 | 0.023 | 0.05 | 0.066 | – | – | – | – | – | – | –
8 | N[C@@H](CCC(=O)O)C(=O)O [Glutmate] | 0.109 | 0.069 | 0 | 0.041 | 0.031 | 0.048 | 0.028 | – | – | – | – | – | – | –
9 | NCC(=O)O [Glycine] | 0.223 | 0.03 | 0.032 | 0.042 | 0.053 | 0.108 | 0.232 | – | – | – | – | – | – | –
10 | NCCc1c[nH]cn1 [Histamine] | 0.136 | 0.016 | 0.035 | 0.028 | 0.056 | 0.051 | 0.086 | – | – | – | – | – | – | –
11 | CN1[C@@H]2CC[C@H]1C[C@@H](OC(=O)[C@H](CO)c1ccccc1)C2 [Hyoscyamine] | – | – | – | – | – | – | – | – | 0.1005 | 0.08466 | 0.09524 | 0.1217 | 0.01058 | –
12 | CC(C)[N+]1(C)[C@@H]2CC[C@H]1C[C@@H](OC(=O)C(CO)c1ccccc1)C2 (some centres unmarked) [Ipatropium] | – | – | – | – | – | – | – | – | 0.03351 | 0.3358 | 0.05921 | 0.03979 | 0.03984 | –
13 | CCN(CC)CC(=O)Nc1c(C)cccc1C [Lidocaine] | – | – | – | – | – | – | – | – | 0.1106 | 0.1119 | 0.1369 | 0.1879 | 0.1519 | did not activate
